Laboratory results taken from patent US20230270804A1, “ANTI-HYPERCHOLESTEROLEMIA COMPOSITION AND A METHOD OF MANUFACTURING THE SAME” (NBI BIOSCIENCES PRIVATE LIMITED, priority 2020, published 2023).

Columns and labels:
[1] = Therapeutic study: hematological parameters; format: in vivo, Wistar strain albino rats; conditions: for Lymphocyte / Neutrophils: in % (unit assumed); for Eosinophil: unit assumed
Protocol: Wistar strain albino rats of body weight ranging from 190-225 g were selected for the present study. The temperature and humidity were kept at optimum (22+2° C.; 40-70% and animals were exposed to natural chronological day night cycles. The experiments were carried out in conformity with the Institutional Animal Ethics Committee.
The 6 groups were as follows: • 1. Normal Control • 2.
1.5-2 ml blood sample was taken from retino-orbital chamber in vials for biochemical estimations at every 15 days. Investigations performed included detailed Total Cholesterol—TC (mg/dl), Triglyceride—TG (mg/dl), High Density Lipoprotein—HDL-C (mg/dl), Low Density Lipoprotein—LDL-C (mg/dl), Very Low-Density Lipoprotein—VLDL (mg/dl), WBC (10^3/u1), RBC (10^6/u1), Hb (g/dl), PCV (%), Reticulocyte (%), Platelet count 10^5/mm^3, Clotting time (Sec), Neutrophils, Lymphocyte, Monocyte and Eosinophil. The estimations were done with Ecoline kits from Erba Mannheim, ERBA diagnostics Mannheml, Germany using Semi Autoanalyzer RX50 of MicroLabs Instruments and COUNCELL21 of Tulip Diagnostics Pvt. Ltd. Lipid peroxidation (Plasma & Liver), HMG Co-Reductase, Creatine phosphokinase (CPK), Lactate dehydrogenase (LDH), SGOT and SGPT were estimated at the end of both the studies using the kits.

[2] = rat, in vivo
Protocol: The prophylactic study which lasted 90 days used 6 rats per group. […] The 6 groups were as follows: • 1. Normal Control • 2. High Fat Diet (HFD) 1 ml 1/d+Normal Diet • 3. High Fat Diet (HFD)+Normal Diet+the composition of the present invention (OD) • 4, High Fat Diet (HFD)+Normal Diet+the composition of the present invention (BD) • 5. […] The body weights were recorded to the nearest gram (g) with proper tare to 0.0000 with the subject at steady state on the weighing machine. The same weighing machine was used for all the subjects. The machine was tested with a known set of weights for any error.
The long-term rise in the electrolyte such as Na and are associated with blood pressure disorders impacting the heart.

## CC(C)c1c(C(=O)Nc2ccccc2)c(-c2ccccc2)c(-c2ccc(F)cc2)n1CC[C@@H](O)C[C@@H](O)CC(=O)O [Statin, Atorvastatin]
[1]; HFD continued, day 0
  Clotting time: 113.33 ± 1.15 s
  Hb: 12.30 ± 0.20 g/dL
  Monocyte: 1.35%
  PCV: 42.57 ± 1.36%
  Platelet count: 1070 ± 13.9 10³/µL
  RBC: 7.93 ± 0.15 10^6/μl
  Reticulocyte: 1.28 ± 0.03%
  Lymphocyte: 72
  Neutrophils: 25.5
  Eosinophil: 1.25%
[1]; HFD continued, day 15
  Clotting time: 114.33 ± 1.15 s
  Hb: 12.40 ± 0.20 g/dL
  Monocyte: 1.35%
  PCV: 43.43 ± 1.53%
  Platelet count: 1070 ± 11.6 10³/µL
  RBC: 8.07 ± 0.15 10^6/μl
  WBC: 8.58 ± 0.32 103/μl
  Lymphocyte: 72
  Neutrophils: 25.5
  Eosinophil: 1.25%
[1]; HFD continued, day 30
  Clotting time: 114.37 ± 0.71 s
  Hb: 12.83 ± 0.25 g/dL
  PCV: 42.85 ± 0.25%
  Platelet count: 1087 ± 3.61 10³/µL
  RBC: 7.95 ± 0.03 10^6/μl
  Reticulocyte: 1.31 ± 0.03%
  WBC: 8.72 ± 0.07 103/μl
  Lymphocyte: 71.2
  Neutrophils: 26
  Eosinophil: 1.28%
[1]; HFD continued, day 45
  Clotting time: 114.40 ± 0.46 s
  Hb: 12.88 ± 0.28 g/dL
  Monocyte: 1.33%
  PCV: 42.93 ± 0.42%
  Platelet count: 1080 ± 14.5 10³/µL
  RBC: 7.90 ± 0.05 10^6/μl
  Reticulocyte: 1.33 ± 0.02%
  WBC: 8.65 ± 0.08 103/μl
  Lymphocyte: 71.67
  Neutrophils: 25.73
  Eosinophil: 1.27%
[1]; HFD continued, day 60
  Clotting time: 113.33 ± 1.24 s
  Hb: 12.76 ± 0.28 g/dL
  PCV: 42.53 ± 0.57%
  Platelet count: 1070 ± 17 10³/µL
  RBC: 7.83 ± 0.09 10^6/μl
  WBC: 8.57 ± 0.12 103/μl
  Lymphocyte: 71.67
  Neutrophils: 25.70
  Eosinophil: 1.28%
[1]; HFD discontinued, day 0
  Clotting time: 113.33 ± 1.53 s
  Hb: 12.53 ± 0.38 g/dL
  Monocyte: 1.35%
  PCV: 41.43 ± 1.07%
  Platelet count: 1080 ± 11 10³/µL
  RBC: 7.73 ± 0.52 10^6/μl
  Reticulocyte: 1.24 ± 0.04%
  WBC: 8.67 ± 0.59 103/μl
  Lymphocyte: 72
  Neutrophils: 25.87
  Eosinophil: 1.25%
[1]; HFD discontinued, day 15
  Clotting time: 113.50 ± 1.00 s
  Hb: 12.58 ± 0.08 g/dL
  Monocyte: 1.35%
  PCV: 41.63 ± 1.02%
  Platelet count: 1087 ± 8.02 10³/µL
  RBC: 7.97 ± 0.32 10^6/μl
  Reticulocyte: 1.26 ± 0.01%
  WBC: 8.57 ± 0.42 103/μl
  Lymphocyte: 72
  Neutrophils: 25.97
  Eosinophil: 1.25%
[1]; HFD discontinued, day 30
  Clotting time: 113.00 ± 0.70 s
  Hb: 12.62 ± 0.07 g/dL
  PCV: 41.64 ± 0.07%
  Platelet count: 1086 ± 8.19 10³/µL
  RBC: 7.73 ± 0.03 10^6/μl
  Reticulocyte: 1.27 ± 0.02%
  WBC: 8.58 ± 0.04 103/μl
  Lymphocyte: 71.3
  Neutrophils: 26.1
  Eosinophil: 1.26%
[1]; HFD discontinued, day 45
  Clotting time: 113.17 ± 0.35 s
  Hb: 12.87 ± 0.26 g/dL
  Monocyte: 1.27%
  PCV: 41.42 ± 0.50%
  Platelet count: 1070 ± 18.7 10³/µL
  RBC: 7.65 ± 0.08 10^6/μl
  Reticulocyte: 1.28 ± 0.07%
  WBC: 8.51 ± 0.14 103/μl
  Lymphocyte: 71.58
  Neutrophils: 25.9
  Eosinophil: 1.25%
[1]; HFD discontinued, day 60
  Clotting time: 112.04 ± 1.28 s
  Hb: 12.74 ± 0.27 g/dL
  Monocyte: 1.25%
  PCV: 41.01 ± 0.64%
  Platelet count: 1060 ± 20.3 10³/µL
  RBC: 7.57 ± 0.11 10^6/μl
  Reticulocyte: 1.26 ± 0.06%
  WBC: 8.42 ± 0.16 103/μl
  Lymphocyte: 71.70
  Neutrophils: 25.81
  Eosinophil: 1.24%
[2]
  Sodium and potassium level: enhanced
